Assay results: article PMC3183052, “Immunoprotectivity of HLA-A2 CTL Peptides Derived from Respiratory Syncytial Virus Fusion Protein in HLA-A2 Transgenic Mouse” (PLoS ONE, 2011)

How the values were obtained:
CD4+CD25+ T cells = assay: Infiltration of CD4+CD25+ T cells in the lungs after RSV challenge; assay type: in vivo, mouse; conditions: mice pre-immunized with peptide and challenged with live RSV; unshown results
lung eosinophils = assay: Eosinophil infiltration into the lungs (anti-MBP immunohistochemistry); assay type: in vivo, HLA-A*0201 transgenic C57BL/6 mice; conditions: day 4 post RSV challenge; anti-MBP staining, 20 fields at 200×; six mice per group
Excerpt: Whole lungs were excised from the mice, fixed in 10% formalin (Sigma-Aldrich) solution overnight and embedded in paraffin (Thermo Fisher Scientific) for sectioning. The sections were stained with rat monoclonal anti-major basic protein (MBP) antibody (1∶500 dilution, gifted from Dr. James J. Lee, Mayo Clinic, AZ, USA) followed by the appropriate secondary antibodies. Twenty-bright field microscopy pictures (Nikon DXM1200 CCD digital camera attached with ACT-1 imaging capture software) from each stained section were taken at 200× magnifications and the number of eosinophils was counted. The mean of eosinophil count from each section was calculated.
Figure 6 Eosinophil infiltration into the lungs of peptide-immunized transgenic mice upon RSV challenge. Immunohistochemical analysis of lung sections with anti-major basic protein antibody specific for eosinophils followed by the HRP-conjugated anti-rat antibody was performed. (A) Pictures from the section of normal mouse lung (a), or vehicle- (b), peptide 3- (c), 13- (d), 14- (e) and 23- (f) immunized mouse lung section. (B) Quantitative representation of eosinophil count per section of peptide- or vehicle-immunized HLA-transgenic mice at day 4 post RSV challenge. Twenty bright field pictures from each lung mesenchymal region were examined and the number of eosinophils was counted under 200× magnification. […]

HLA-A*0201 = molecular target: T1, HLA-A*0201 (Homo sapiens, UniProt P04439, D140Y/D185E/D98H/E176V/E277Q/G131W/G231S/I119V/I121R/I166T/I218V/L300P/L318F/N151K/N90K/P208A/P217A/Q86G/Q94H/R138H/R169H/T345S); assay: T2 cell-stabilization assay (T2-binding); conditions: T2 cells 5×10^5, peptide 50 µg/mL + β2-microglobulin 5 µg/mL, 28°C 16–18 h, then brefeldin A 10 µg/mL 37°C 3 h; FITC anti-HLA-A2, flow cytometry; MFI relative to negative control HCV C55-74 (set as 1)
T1 construct: Human T2 cells (purchased from the American Type Culture Collection, ATCC) (ATCC No. CRL-1992) expressing the HLA-A*0201 gene; endogenous in cells; host or cells: human T2 cells (ATCC CRL-1992)
In short: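 T2 cells were pulsed with 9-mer peptides (50 µg/mL) plus β2-microglobulin (5 µg/mL) at 28°C for 16–18 hours, then brefeldin A (10 µg/mL) at 37°C for 3 hours. Surface HLA-A2 was stained with FITC anti-HLA-A2 and read by flow cytometry. Binding is MFI relative to T2 cells loaded with HCV peptide C55-74 (MFI = 1).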

YMLTNSELL [peptide 14, HLA-A*0201-restricted 9-mer synthetic peptide from F protein of RSV-B1 strain]
infiltration of CD4+CD25+ T cells in the lungs (CD4+CD25+ T cells): increased infiltration | eosinophil numbers in the lungs vs vehicle-immunized mice (lung eosinophils): comparable eosinophil numbers | T2-binding Ratio of MFI (HLA-A*0201): 1.71
